2 substances from US7737175B2, “Methods and compositions for regulating HDAC4 activity” (Duke University, priority 2007, dated 2010) can be followed below.

In assay [1] the target is T1, HDAC4 (Mus musculus, UniProt Q6NZM9). Conditions: daily injection.
For assay [2], the target named is T1, HDAC4. Description: muscle atrophy after surgical denervation of siRNA-electroporated tibialis anterior (fiber size, atrophy genes by RT-PCR). Details: HDAC4 siRNA results in more than 80% reduction in HDAC4; from tissue; host or cells: mouse tibialis anterior muscle, in vivo. In kind it is in vivo. Here is the method: (§1) Mouse Procedures. Mice were anaesthetized with a Ketamine/Xylazine mixture (25 mg/ml Ketamine, 1 mg/ml Xylazine in 0.9% NaCl; 100 ul used per mouse. Hair was removed from area surrounding muscle. For denervation, sciatic nerve was exposed and ˜[…] piece of nerve was cut and removed. Incision was sutured and mice were allowed to recover. For overexpression electroporation analysis, 25 ug GFP, HDAC4-GFP, or HDAC4-3SA-GFP was used for injection. For siRNA experiments, 500 pmol siRNA oligo was used for injection. DNA or siRNA were directly injected into TA muscles using cemented MicroSyringe (VWR). ECM 830 electroporator (BTX) was used for all electroporations. Tweezertrodes (Model 520) were coated with transmission gel and were placed outside the skin around the muscle belly and pulsed 5 times at 50V, 60 ms duration, with 200 ms interval time. Mice were allowed to recover in their cages. Stealth siRNA duplexed oligos are from Invitrogen. Sequences are; mouse HDAC4: 5′ […] 3′ (SEQ ID NO:3), mouse HDAC5: 5′ […] 3′ (SEQ ID NO:4).
RNA analysis. For RNA analysis, TA muscles were dounce homogenized in 1 ml Tri reagent (MRC) and incubated at 4° C. overnight. 200 ul chloroform was added, and after vigorous shaking, samples were centrifuged at 12000 rpm for 10 min. Top aqueous layer was added to 500 ul isopropanol, mixed well, and centrifuged at 12000 rpm for 10 min. RNA pellet was washed with 70% ethanol, air-dried, and resuspended in DEPC water for RT-PCR analysis. For northern blotting, 10 ug total RNA was run on a 1% formaldehyde RNA gel. Gel was transferred onto Hybond N+ membrane and probed using radiolabeled fragments of HDAC4 or Atrogin-1 cDNA generated from Prime-it kit II (Stratagene). Blots were exposed for 2 hr at −80° C. For RT-PCR analysis, total RNA was DNase treated using DNA-free kit (Ambion), and 1 ug RNA was used for cDNA synthesis reaction using iScript cDNA Synthesis Kit (Biorad). Samples were diluted 1:50 and 5 ul cDNA was used per RT-PCR reaction. Real-time quantitative PCR was performed using iQ SYBER Green Supermix on the iCycler™ iQ Detection System (Biorad). Sample volume was 20 ul per reaction. Efficiency and specificity of primers were confirmed by standard PCR and DNA electrophoresis. RT-PCR Program on iCycler™ was 95° C. 15 sec, 60° C. 30 sec, 72° C. 30 sec. All real-time PCR values were normalized to either actin or 18S rRNA. RT-PCR primer sequences are as follows: G-actin: forward 5′-[…] 3′ (SEQ ID NO:5), reverse 5′ […] 3′ (SEQ ID NO:6); 18S: forward 5′ […] 3′ (SEQ ID NO:7), reverse 5′ […] 3′ (SEQ ID NO:8); Dach2: forward 5′-[…] 3′ (SEQ ID NO:9), reverse 5′ […] 3′ (SEQ ID NO:10); nAChRα: forward 5′ CGTCTGGTGGCAAAGCT 3′ (SEQ ID NO:11), reverse 5′-CCGCTCTCCATGAAGTT 3′ (SEQ ID NO:12); MGN: forward 5′-[…] […]
To establish a role for HDAC4 in muscle atrophy, scrambled control siRNA or HDAC4-specific siRNA were electroporated into tibialis anterior (TA) followed by denervation. […] The extent of muscle atrophy was then analyzed by measuring muscle fiber size and the induction of atrophy-specific genes, MuRF1 and atrogin 1, two E3 ligases essential for muscle atrophy. […]

Assay [3] addresses T1, HDAC4. The assay can be described thus: PGC-1α and myoglobin expression in tibialis anterior electroporated with HDAC4-siRNA. Format: in vivo. Details: HDAC4 siRNA results in more than 80% reduction in HDAC4; from tissue; host or cells: mouse tibialis anterior muscle, in vivo. The conditions noted are these: fast/glycolytic tibialis anterior muscle. Here is the method: as §1
RNA analysis. For RNA analysis, TA muscles were dounce homogenized in 1 ml Tri reagent (MRC) and incubated at 4° C. overnight. 200 ul chloroform was added, and after vigorous shaking, samples were centrifuged at 12000 rpm for 10 min. […] Real-time quantitative PCR was performed using iQ SYBER Green Supermix on the iCycler™ iQ Detection System (Biorad). […]

For assay [4], the target named is T1, HDAC4. The assay can be described thus: in vivo siRNA knockdown in mouse tibialis muscle, denervation, RT-PCR of Dach2/MGN/nAChR. Details: HDAC4 siRNA results in more than 80% reduction in HDAC4; from tissue; host or cells: mouse tibialis anterior muscle, in vivo. The conditions noted are these: siRNA electroporated into tibialis, denervated 3 days. Here is the method:
as §1
RNA analysis. For RNA analysis, TA muscles were dounce homogenized in 1 ml Tri reagent (MRC) and incubated at 4° C. overnight. 200 ul chloroform was added, and after vigorous shaking, samples were centrifuged at 12000 rpm for 10 min. Top aqueous layer was added to 500 ul isopropanol, mixed well, and centrifuged at 12000 rpm for 10 min. RNA pellet was washed with 70% ethanol, air-dried, and resuspended in DEPC water for RT-PCR analysis. For northern blotting, 10 ug total RNA was run on a 1% formaldehyde RNA gel. Gel was transferred onto Hybond N+ membrane and probed using radiolabeled fragments of HDAC4 or Atrogin-1 cDNA generated from Prime-it kit II (Stratagene). Blots were exposed for 2 hr at −80° C. For RT-PCR analysis, total RNA was DNase treated using DNA-free kit (Ambion), and 1 ug RNA was used for cDNA synthesis reaction using iScript cDNA Synthesis Kit (Biorad). Samples were diluted 1:50 and 5 ul cDNA was used per RT-PCR reaction. Real-time quantitative PCR was performed using iQ SYBER Green Supermix on the iCycler™ iQ Detection System (Biorad). […]

T1 sequence (Q6NZM9 whole entry): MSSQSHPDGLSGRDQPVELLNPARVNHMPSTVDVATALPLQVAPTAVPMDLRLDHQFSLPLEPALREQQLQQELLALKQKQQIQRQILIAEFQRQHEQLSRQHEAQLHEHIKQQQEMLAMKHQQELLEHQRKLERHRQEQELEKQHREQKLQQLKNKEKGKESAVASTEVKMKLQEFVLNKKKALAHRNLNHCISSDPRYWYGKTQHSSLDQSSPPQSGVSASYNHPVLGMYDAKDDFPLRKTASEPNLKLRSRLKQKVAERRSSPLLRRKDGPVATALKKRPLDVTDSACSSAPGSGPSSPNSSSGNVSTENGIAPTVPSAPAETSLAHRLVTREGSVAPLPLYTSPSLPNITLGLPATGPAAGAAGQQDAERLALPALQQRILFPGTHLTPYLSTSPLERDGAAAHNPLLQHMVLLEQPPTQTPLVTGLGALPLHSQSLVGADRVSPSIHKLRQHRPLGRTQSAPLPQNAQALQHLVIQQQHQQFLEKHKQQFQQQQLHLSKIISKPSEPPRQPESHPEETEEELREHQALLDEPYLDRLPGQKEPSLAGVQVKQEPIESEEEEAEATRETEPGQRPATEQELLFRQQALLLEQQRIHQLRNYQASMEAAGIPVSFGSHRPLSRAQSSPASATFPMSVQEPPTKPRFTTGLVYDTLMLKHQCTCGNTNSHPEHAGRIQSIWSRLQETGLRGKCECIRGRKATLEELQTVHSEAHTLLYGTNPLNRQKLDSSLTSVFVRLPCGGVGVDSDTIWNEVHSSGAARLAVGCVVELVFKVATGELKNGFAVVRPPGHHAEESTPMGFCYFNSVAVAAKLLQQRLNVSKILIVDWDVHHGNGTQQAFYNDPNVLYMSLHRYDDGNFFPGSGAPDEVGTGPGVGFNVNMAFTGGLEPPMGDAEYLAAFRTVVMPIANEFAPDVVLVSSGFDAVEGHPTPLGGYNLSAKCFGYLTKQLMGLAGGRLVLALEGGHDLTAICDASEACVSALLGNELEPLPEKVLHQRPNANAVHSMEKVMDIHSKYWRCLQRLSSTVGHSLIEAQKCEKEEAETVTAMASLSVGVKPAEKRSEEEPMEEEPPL

For Trichostatin A, the “level of PGC-1α” value at HDAC4 [1] is given as “increase”.

Consider “5′ CACCGGAACCUGAACCACUGCAUUU 3′ (SEQ ID NO:3) [HDAC4 siRNA]”, for which, on HDAC4 [2] (RT-PCR), the “atrogin 1 expression after denervation” value was “modestly affected” and the “induction of MuRF1 by denervation” value is given as “significantly inhibited”. Also, the “atrophy (reduction in TA muscle size) after denervation” value at HDAC4 [2] (denervation for 12 days, versus control siRNA) is “largely prevented”. The “reduction in HDAC4” value at HDAC4 [2] (siRNA electroporated into tibialis anterior) is on record as “more than 80%”. For the same substance, the “size of individual fibers of denervated muscles” value on HDAC4 [2] (versus fibers that received control siRNA) is “much larger”. On HDAC4 [3], the PGC-1α expression entry was “elevation” and the myoglobin expression result is “elevation”. At HDAC4 [4], the “induction of MGN after denervation” value is “dramatically reduced” and the “induction of nAChR after denervation” value was “dramatically reduced”. For the same substance, the “repression of Dach2 that occurs during denervation” value at HDAC4 [4] (7 days after electroporation) is “significantly alleviates”.
